Measured values from the supplement of paper PMC11451515.

Test system: NOMO1
Assay: cell viability relative to DMSO control; higher = less cytotoxic
Conditions: 48 h
In short: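 NOMO1, SEM and P12-Ichikawa leukemia cells spent at least four passages adapting to each medium before use. They were seeded at 500 cells/well (NOMO1, SEM) or 1000 cells/well (P12-Ichikawa) in 5 μl in 1536-well plates and pin-dosed with library compounds in DMSO at 11 threefold steps from 47 μM down to 0.79 nM. After 48 h at 37°C, CellTiter-Glo One luminescence was read. Viability is reported as a percentage of the DMSO wells on each plate, with cell-free wells as background.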

[1] = RPMI 5 mM glucose + 10% FBS, 0.000781 µM
[2] = RPMI 5 mM glucose + 10% FBS, 0.00234 µM
[3] = RPMI 5 mM glucose + 10% FBS, 0.00702 µM
[4] = RPMI 5 mM glucose + 10% FBS, 0.0211 µM
[5] = RPMI 5 mM glucose + 10% FBS, 0.0632 µM
[6] = RPMI 5 mM glucose + 10% FBS, 0.19 µM
[7] = RPMI 5 mM glucose + 10% FBS, 0.569 µM
[8] = RPMI 5 mM glucose + 10% FBS, 1.71 µM
[9] = RPMI 5 mM glucose + 10% FBS, 5.12 µM
[10] = RPMI 5 mM glucose + 10% FBS, 15.4 µM
[11] = RPMI 5 mM glucose + 10% FBS, 46.1 µM
[12] = RPMI 5 mM glucose + 10% dialyzed FBS, 0.000781 µM
[13] = RPMI 5 mM glucose + 10% dialyzed FBS, 0.00234 µM
[14] = RPMI 5 mM glucose + 10% dialyzed FBS, 0.00702 µM
[15] = RPMI 5 mM glucose + 10% dialyzed FBS, 0.0211 µM
[16] = RPMI 5 mM glucose + 10% dialyzed FBS, 0.0632 µM
[17] = RPMI 5 mM glucose + 10% dialyzed FBS, 0.19 µM
[18] = RPMI 5 mM glucose + 10% dialyzed FBS, 0.569 µM
[19] = RPMI 5 mM glucose + 10% dialyzed FBS, 1.71 µM
[20] = RPMI 5 mM glucose + 10% dialyzed FBS, 5.12 µM
[21] = RPMI 5 mM glucose + 10% dialyzed FBS, 15.4 µM
[22] = RPMI 5 mM glucose + 10% dialyzed FBS, 46.1 µM
[23] = HPLM + 10% dialyzed FBS, 0.000781 µM
[24] = HPLM + 10% dialyzed FBS, 0.00234 µM
[25] = HPLM + 10% dialyzed FBS, 0.00702 µM
[26] = HPLM + 10% dialyzed FBS, 0.0211 µM
[27] = HPLM + 10% dialyzed FBS, 0.0632 µM
[28] = HPLM + 10% dialyzed FBS, 0.19 µM
[29] = HPLM + 10% dialyzed FBS, 0.569 µM
[30] = HPLM + 10% dialyzed FBS, 1.71 µM
[31] = HPLM + 10% dialyzed FBS, 5.12 µM
[32] = HPLM + 10% dialyzed FBS, 15.4 µM
[33] = HPLM + 10% dialyzed FBS, 46.1 µM

## C[C@]12CC[C@H]3[C@@H](CCC4=CC(=O)CC[C@@H]43)[C@@H]1CC[C@@H]2OC(=O)CCc1ccccc1
[1]
  cell viability: 126%
[2]
  cell viability: 115%
[3]
  cell viability: 119%
[4]
  cell viability: 130%
[5]
  cell viability: 114%
[6]
  cell viability: 113%
[7]
  cell viability: 112%
[8]
  cell viability: 133%
[9]
  cell viability: 115%
[10]
  cell viability: 128%
[11]
  cell viability: 78%
[12]
  cell viability: 120%
[13]
  cell viability: 127%
[14]
  cell viability: 115%
[15]
  cell viability: 124%
[16]
  cell viability: 141%
[17]
  cell viability: 135%
[18]
  cell viability: 144%
[19]
  cell viability: 133%
[20]
  cell viability: 128%
[21]
  cell viability: 137%
[22]
  cell viability: 68.7%

## CCOC(=O)C(C)OC1=CC=CC2=C1\C=C/N(CC(=O)NC3=CC=C4OCCOC4=C3)C2=O (stereo unspecified)
[23]
  cell viability: 82.7%
[24]
  cell viability: 96.6%
[25]
  cell viability: 94.4%
[26]
  cell viability: 97.2%
[27]
  cell viability: 90.8%
[28]
  cell viability: 98.5%
[29]
  cell viability: 99.8%
[30]
  cell viability: 94.7%
[31]
  cell viability: 80.5%
[32]
  cell viability: 81.8%
[33]
  cell viability: 97.2%
[1]
  cell viability: 81.7%
[2]
  cell viability: 89.4%
[3]
  cell viability: 101%
[4]
  cell viability: 96.8%
[5]
  cell viability: 91%
[6]
  cell viability: 88.8%
[7]
  cell viability: 96.7%
[8]
  cell viability: 87.8%
[9]
  cell viability: 89.4%
[10]
  cell viability: 89.5%
[11]
  cell viability: 87.5%
[12]
  cell viability: 92.3%
[13]
  cell viability: 89.8%
[14]
  cell viability: 98.2%
[15]
  cell viability: 92.2%
[16]
  cell viability: 94.6%
[17]
  cell viability: 92.3%
[18]
  cell viability: 94.9%
[19]
  cell viability: 88.8%
[20]
  cell viability: 74.6%
[21]
  cell viability: 91.9%
[22]
  cell viability: 109%

## CCOC(=O)\C1=C\[C@]2(CC)CCCN3CCC4=C([C@H]23)[N]1C5=C4C=CC=C5
[23]
  cell viability: 104%
[24]
  cell viability: 118%
[25]
  cell viability: 122%
[26]
  cell viability: 124%
[27]
  cell viability: 125%
[28]
  cell viability: 126%
[29]
  cell viability: 131%
[30]
  cell viability: 123%
[31]
  cell viability: 124%
[32]
  cell viability: 126%
[33]
  cell viability: 54.5%
[1]
  cell viability: 95.3%
[2]
  cell viability: 103%
[3]
  cell viability: 113%
[4]
  cell viability: 113%
[5]
  cell viability: 123%
[6]
  cell viability: 120%
[7]
  cell viability: 135%
[8]
  cell viability: 113%
[9]
  cell viability: 102%
[10]
  cell viability: 111%
[11]
  cell viability: 57.7%
[12]
  cell viability: 91.8%
[13]
  cell viability: 105%
[14]
  cell viability: 118%
[15]
  cell viability: 122%
[16]
  cell viability: 108%
[17]
  cell viability: 113%
[18]
  cell viability: 119%
[19]
  cell viability: 110%
[20]
  cell viability: 108%
[21]
  cell viability: 105%
[22]
  cell viability: 70.5%

## Oc1nc(-c2ccc(C(F)(F)F)cc2)nc2c1CSCC2
[23]
  cell viability: 125%
[24]
  cell viability: 90.4%
[25]
  cell viability: 96.4%
[26]
  cell viability: 81.1%
[27]
  cell viability: 98%
[28]
  cell viability: 93.4%
[29]
  cell viability: 111%
[30]
  cell viability: 98.4%
[31]
  cell viability: 118%
[32]
  cell viability: 94%
[33]
  cell viability: 100%
[1]
  cell viability: 88.5%
[2]
  cell viability: 88%
[3]
  cell viability: 93.5%
[4]
  cell viability: 91.8%
[5]
  cell viability: 95.5%
[6]
  cell viability: 97.9%
[7]
  cell viability: 96.2%
[8]
  cell viability: 87.6%
[9]
  cell viability: 85.8%
[10]
  cell viability: 104%
[11]
  cell viability: 88.2%
[12]
  cell viability: 92.6%
[13]
  cell viability: 99.8%
[14]
  cell viability: 105%
[15]
  cell viability: 94.3%
[16]
  cell viability: 98.1%
[17]
  cell viability: 102%
[18]
  cell viability: 91.8%
[19]
  cell viability: 102%
[20]
  cell viability: 98.4%
[21]
  cell viability: 99.4%
[22]
  cell viability: 90.4%

## COc1c(C)c2c(c(O)c1C/C=C(\C)CCC(=O)O)C(=O)OC2
[23]
  cell viability: 116%
[24]
  cell viability: 109%
[25]
  cell viability: 106%
[26]
  cell viability: 107%
[27]
  cell viability: 116%
[28]
  cell viability: 95.4%
[29]
  cell viability: 115%
[30]
  cell viability: 100%
[31]
  cell viability: 86.7%
[32]
  cell viability: 45.2%
[33]
  cell viability: 32.6%
[1]
  cell viability: 101%
[2]
  cell viability: 107%
[3]
  cell viability: 102%
[4]
  cell viability: 94.4%
[5]
  cell viability: 109%
[6]
  cell viability: 94.9%
[7]
  cell viability: 102%
[8]
  cell viability: 109%
[9]
  cell viability: 84.6%
[10]
  cell viability: 47.5%
[11]
  cell viability: 22.3%
[12]
  cell viability: 98.4%
[13]
  cell viability: 96.7%
[14]
  cell viability: 105%
[15]
  cell viability: 97.3%
[16]
  cell viability: 100%
[17]
  cell viability: 108%
[18]
  cell viability: 84.7%
[19]
  cell viability: 89.5%
[20]
  cell viability: 90.4%
[21]
  cell viability: 58%
[22]
  cell viability: 38.3%

## CC#CCn1c(N2CCC[C@@H](N)C2)nc2c1c(=O)n(Cc1nc(C)c3ccccc3n1)c(=O)n2C
[23]
  cell viability: 97.8%
[24]
  cell viability: 97.2%
[25]
  cell viability: 100%
[26]
  cell viability: 88.2%
[27]
  cell viability: 108%
[28]
  cell viability: 110%
[29]
  cell viability: 104%
[30]
  cell viability: 87.8%
[31]
  cell viability: 98.3%
[32]
  cell viability: 114%
[33]
  cell viability: 75.1%
[1]
  cell viability: 97.6%
[2]
  cell viability: 93.7%
[3]
  cell viability: 101%
[4]
  cell viability: 90.3%
[5]
  cell viability: 89%
[6]
  cell viability: 96.3%
[7]
  cell viability: 102%
[8]
  cell viability: 89%
[9]
  cell viability: 88.1%
[10]
  cell viability: 91.1%
[11]
  cell viability: 82%
[12]
  cell viability: 104%
[13]
  cell viability: 96.6%
[14]
  cell viability: 112%
[15]
  cell viability: 87.7%
[16]
  cell viability: 101%
[17]
  cell viability: 105%
[18]
  cell viability: 100%
[19]
  cell viability: 96.3%
[20]
  cell viability: 93.8%
[21]
  cell viability: 97.7%
[22]
  cell viability: 91.7%

## CCCCCNC(=O)N1CCC(CN(Cc2ccc(Cl)cc2)Cc2ccc([N+](=O)[O-])s2)C1 (stereo unspecified)
[1]
  cell viability: 123%
[2]
  cell viability: 111%
[3]
  cell viability: 104%
[4]
  cell viability: 102%
[5]
  cell viability: 107%
[6]
  cell viability: 120%
[7]
  cell viability: 108%
[8]
  cell viability: 112%
[9]
  cell viability: 110%
[10]
  cell viability: 94.5%
[11]
  cell viability: 94.8%

## O=C(O)C(=O)c1cn(Cc2ccccc2)c2ccc(-c3ccc(OC(F)(F)F)cc3)cc12
[23]
  cell viability: 101%
[24]
  cell viability: 102%
[25]
  cell viability: 105%
[26]
  cell viability: 107%
[27]
  cell viability: 108%
[28]
  cell viability: 108%
[29]
  cell viability: 110%
[30]
  cell viability: 81.4%
[31]
  cell viability: 91.3%
[32]
  cell viability: 90.6%
[33]
  cell viability: 88.5%
[1]
  cell viability: 93.5%
[2]
  cell viability: 94.8%
[3]
  cell viability: 90.3%
[4]
  cell viability: 109%
[5]
  cell viability: 96%
[6]
  cell viability: 100%
[7]
  cell viability: 104%
[8]
  cell viability: 89.6%
[9]
  cell viability: 97.8%
[10]
  cell viability: 96.1%
[11]
  cell viability: 89.5%
[12]
  cell viability: 106%
[13]
  cell viability: 96.8%
[14]
  cell viability: 104%
[15]
  cell viability: 119%
[16]
  cell viability: 97.8%
[17]
  cell viability: 95.3%
[18]
  cell viability: 100%
[19]
  cell viability: 85.2%
[20]
  cell viability: 93%
[21]
  cell viability: 98.4%
[22]
  cell viability: 80.8%
